Measurements reported in article PMC7252524 (Journal of medicinal chemistry, 2019).

Experiment: Mouse PK analysis, large intestine
Assay type: in vivo

Row | SMILES | Large Intestinal PK AUClast (ip, 10 mg/kg) | Large Intestinal PK AUClast (iv, 10 mg/kg) | Large Intestinal PK AUClast (iv, 5 mg/kg) | Large Intestinal PK AUClast (po, 20 mg/kg)
1 | COc1ccc(S(=O)(=O)N2CCC(N3CCC(C)CC3)CC2)cc1 [compound 6, 1’-((4-Methoxyphenyl)sulfonyl)-4-methyl-1,4’-bipiperidine] | 737,709 ng·min/g | – | – | –
2 | CC1CCN(C2CCN(S(=O)(=O)c3ccc(Cl)cc3)CC2)CC1 [compound 16, 1’-((4-Chlorophenyl)sulfonyl)-4-methyl-1,4’-bipiperidine] | – | 262,874 ng·min/g | – | –
3 | CC1CCN(C2CCN(S(=O)(=O)c3ccc(OC(F)F)cc3)CC2)CC1 [compound 22, 1’-((4-(Difluoromethoxy)phenyl)sulfonyl)-4-methyl-1,4’-bipiperidine] | 790,425 ng·min/g | – | 511,878 ng·min/g | 890,969 ng·min/g
4 | C#CCC1CCN(C2CCN(S(=O)(=O)c3ccc(Br)cc3)CC2)CC1 [compound 92, 1’-((4-Bromophenyl)sulfonyl)-4-(prop-2-yn-1-yl)-1,4’-bipiperidine] | 633,289 ng·min/g | 559,037 ng·min/g | – | –
